This is an account of results in ChEMBL document CHEMBL5316313, “Discovery of Novel 3-Phenylpiperidine Derivatives Targeting the β-Catenin/B-Cell Lymphoma 9 Interaction as a Single Agent and in Combination with the Anti-PD-1 Antibody for the Treatment of Colorectal Cancer” (J Med Chem, 2023).

One data set deals with SW480. The data set can be described thus: cells. Particulars: Homo sapiens, SW480, 48 h.
The subject of the next data set is A549. The data set can be described thus: cells. Particulars: Homo sapiens, A549, 48 h.
The subject of a further data set is CT26. Briefly: cells. Particulars: Mus musculus, CT26, 48 h.
Another data set deals with HCT-116. The data set can be described thus: cells. Particulars: Homo sapiens, HCT-116, 48 h.
Data set [1] relates to HEK293. The data set can be described thus: cells. Particulars: Homo sapiens, HEK293, 48 h.
The target of another data set is T1, Beta catenin-BCL9 (Mus musculus, UniProt Q02248+Q9D219).
T1 sequence (Q02248 whole entry): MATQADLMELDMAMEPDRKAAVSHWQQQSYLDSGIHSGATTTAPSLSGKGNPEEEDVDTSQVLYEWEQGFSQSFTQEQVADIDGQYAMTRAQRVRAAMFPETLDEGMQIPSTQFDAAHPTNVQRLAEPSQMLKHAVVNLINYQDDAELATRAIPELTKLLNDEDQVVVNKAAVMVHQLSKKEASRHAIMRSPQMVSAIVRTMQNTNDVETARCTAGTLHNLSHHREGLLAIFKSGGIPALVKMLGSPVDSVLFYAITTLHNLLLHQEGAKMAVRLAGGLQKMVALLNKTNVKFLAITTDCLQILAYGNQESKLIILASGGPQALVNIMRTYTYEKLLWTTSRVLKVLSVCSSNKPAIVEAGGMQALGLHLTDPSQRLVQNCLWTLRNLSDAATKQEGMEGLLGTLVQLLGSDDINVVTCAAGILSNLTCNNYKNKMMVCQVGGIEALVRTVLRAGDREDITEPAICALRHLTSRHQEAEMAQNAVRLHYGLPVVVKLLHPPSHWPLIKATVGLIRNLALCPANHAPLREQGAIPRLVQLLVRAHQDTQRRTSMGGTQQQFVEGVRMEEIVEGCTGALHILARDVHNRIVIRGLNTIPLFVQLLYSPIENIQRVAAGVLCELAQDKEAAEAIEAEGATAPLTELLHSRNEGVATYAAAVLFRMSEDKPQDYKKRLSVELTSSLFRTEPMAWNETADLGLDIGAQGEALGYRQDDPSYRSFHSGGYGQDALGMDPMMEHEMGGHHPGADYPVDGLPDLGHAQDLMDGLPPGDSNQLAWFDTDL
T1 sequence (Q9D219 whole entry): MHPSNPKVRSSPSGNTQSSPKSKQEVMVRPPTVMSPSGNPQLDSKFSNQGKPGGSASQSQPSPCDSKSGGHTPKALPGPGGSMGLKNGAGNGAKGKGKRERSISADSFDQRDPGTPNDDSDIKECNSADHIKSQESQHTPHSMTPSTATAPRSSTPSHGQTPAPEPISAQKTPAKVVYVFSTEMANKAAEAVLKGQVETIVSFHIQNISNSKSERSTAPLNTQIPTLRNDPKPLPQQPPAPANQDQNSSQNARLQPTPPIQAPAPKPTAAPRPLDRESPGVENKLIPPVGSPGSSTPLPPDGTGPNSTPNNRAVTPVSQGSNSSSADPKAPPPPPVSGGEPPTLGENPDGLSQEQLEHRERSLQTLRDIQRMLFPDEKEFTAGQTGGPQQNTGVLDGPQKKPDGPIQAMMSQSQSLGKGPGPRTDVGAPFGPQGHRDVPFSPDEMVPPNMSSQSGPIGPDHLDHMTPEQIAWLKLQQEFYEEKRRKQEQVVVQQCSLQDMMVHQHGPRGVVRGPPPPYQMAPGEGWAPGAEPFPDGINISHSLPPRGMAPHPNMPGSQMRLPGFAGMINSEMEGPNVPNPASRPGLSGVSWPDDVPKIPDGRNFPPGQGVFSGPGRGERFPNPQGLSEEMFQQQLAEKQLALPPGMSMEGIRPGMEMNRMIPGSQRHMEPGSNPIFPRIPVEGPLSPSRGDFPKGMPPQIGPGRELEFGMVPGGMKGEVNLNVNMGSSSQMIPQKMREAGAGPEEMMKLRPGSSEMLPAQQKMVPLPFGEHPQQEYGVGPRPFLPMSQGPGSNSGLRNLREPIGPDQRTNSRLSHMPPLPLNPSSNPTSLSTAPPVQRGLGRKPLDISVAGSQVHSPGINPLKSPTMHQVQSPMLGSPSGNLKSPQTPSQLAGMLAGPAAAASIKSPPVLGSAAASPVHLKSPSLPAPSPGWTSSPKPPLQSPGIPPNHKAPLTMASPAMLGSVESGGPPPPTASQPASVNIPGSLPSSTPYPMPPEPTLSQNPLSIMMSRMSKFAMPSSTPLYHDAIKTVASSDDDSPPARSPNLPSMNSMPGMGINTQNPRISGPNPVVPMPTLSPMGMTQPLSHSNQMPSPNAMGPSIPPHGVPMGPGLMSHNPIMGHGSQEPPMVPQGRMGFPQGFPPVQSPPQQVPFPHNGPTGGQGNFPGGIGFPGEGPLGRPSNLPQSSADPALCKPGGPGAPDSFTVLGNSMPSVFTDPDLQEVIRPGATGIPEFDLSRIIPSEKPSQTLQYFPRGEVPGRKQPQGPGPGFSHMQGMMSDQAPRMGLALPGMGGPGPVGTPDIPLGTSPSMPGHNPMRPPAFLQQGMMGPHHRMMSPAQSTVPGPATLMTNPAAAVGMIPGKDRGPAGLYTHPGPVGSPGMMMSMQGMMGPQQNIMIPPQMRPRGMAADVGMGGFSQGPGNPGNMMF
Briefly: Inhibition of beta-catenin/BCL9 protein-protein interaction in Wnt-dependent mouse CT26 cells assessed as reduction in Axin2 expression level by qRT-PCR assay. It is filed as cell-based. On the technique in general: In qPCR the cycle at which signal appears reflects the starting amount.

In the next data set the test system is RKO. Briefly: cells. The settings on record: Homo sapiens, 48 h.
Data set [2] in a line: AUC (0 to infinity) in Sprague-Dawley rat at 21 mg/kg, ip and measured upto 24 hrs by LC-MS analysis. It is filed as ADME, organism-based. Details: time < 24 hrs, dose 21 mg/kg, route ip. The settings on record: in vivo.
Data set [3] can be described thus: Toxicity in BALB/c mouse xenografted with mouse CT26 cells assessed as pathological changes in spleen at 30 mg/kg, ip QD in presence of anti-PD-1 antibody cotreatment at 10 mg/kg,ip BIW by hematoxylin and eosin staining based microscopic analysis. It is filed as organism-based. Particulars: in vivo.
Data set [4] is described as follows: Toxicity in BALB/c mouse xenografted with mouse CT26 cells assessed as pathological changes in heart at 30 mg/kg, ip QD by hematoxylin and eosin staining based microscopic analysis. Type of data set: organism-based. Particulars: in vivo.
Data set [5] concerns HEK293. The data set can be described thus: Induction of apoptosis in Wnt-independent human HEK293 cells assessed as necrotic cells at 20 uM incubated for 24 hrs by Annexin V-Alexa Fluor 647/PI staining based flow cytomtery (Rvb=1.82%). Type of data set: functional.
Data set [6] is described as follows: Toxicity in BALB/c mouse xenografted with mouse CT26 cells assessed as adverse effect at 30 mg/kg, ip QD and measured upto 9 days. It is filed as organism-based. Particulars: in vivo, 216 h, time < 9 day.
Data set [7] is described as follows: Half life in Sprague-Dawley rat at 21 mg/kg, ip and measured upto 24 hrs by LC-MS analysis. It is filed as ADME, organism-based. Particulars: in vivo.

SMILES strings stand for the structures. Bounds are passed on as bounds.

Broadly, the IC50 is the point on the concentration scale where inhibition reaches its midpoint. What is called AUC(0-inf) is total exposure, with the tail of the curve extrapolated. A low value points to low exposure. As usually defined, the half-life is how long it takes for the measured level to halve. A low value points to fast loss.

For the molecule `O=C1[C@H](Cc2ccc(O)cc2)N2C(=O)CCN(C(=O)NCc3ccccc3)[C@H]2CN1Cc1cccc2ccccc12`, the IC50 with SW480 was 8.43 µM; in the data set on A549 it was 54.1 µM; with CT26 it was 18.6 µM; in the data set with HCT-116 it was 32.7 µM; with HEK293 [1], 75.4 µM; at Beta catenin-BCL9 it was 4.62 µM. Inhibition with RKO was half-maximal at 77.5 µM (IC50).

With `CC(C)c1ccc(-c2cccc(S(=O)(=O)N3CCCC(c4cccc(OC(C)(C)C(=O)NS(=O)(=O)c5ccc(C(F)(F)F)cc5)c4)C3)c2)cc1` (stereo not given), in data set [2], the AUC(0-inf) stood at 17400 ng·h/mL. For the same molecule, the IC50 is 16.2 µM in the data set with SW480; > 40 µM with A549; 4.74 µM in the data set with CT26; 9.25 µM in the data set with HCT-116; > 40 µM with HEK293 [1]; 0.66 µM on Beta catenin-BCL9. Also, the IC50 in the data set with RKO was > 40 µM. Moreover, the Activity result in data set [3] is “Non-Toxic”; in data set [4], “Non-Toxic”; in the data set on HEK293 [5], 1.69%; in [6] it was “Non-Toxic”. The same molecule had a half-life in data set [7] of 1.15 h.
